In patent publication US5798382A, “2,3-dihydrobenzofuran derivatives, method for producing the same, and use thereof” (Asahi Kasei Kogyo Kabushiki Kaisha, priority 1994, dated 1998):
pKd, pKi: −log10 of the molar value.

Key:
adrenaline α1 receptor = test: Affinity for adrenaline α1 receptor: inhibition of 3H-Prazosin binding to rat cerebral cortex membrane fraction; set-up: species or system rat (male SD strain); conditions: for pKi: 3H-Prazosin, rat cerebral cortex membrane, 25° C. 30 min, tested as hydrochloride salt
Procedure: A male SD strain rat (7-week old; Charles River) was decapitated, and brain was taken out therefrom quickly. Cerebral cortex of the rat was separated and extracted at […] under ice cooling. The extracted cerebral cortex was frozen at -80° C. for 24 hours or longer. This frozen system was gradually thawed under ice cooling and then, 50 mM Tris-HCl buffer (pH 7.4) was added to the brain under ice cooling to obtain a suspension. The resultant suspension was homogenized, and then subjected to centrifugation at 48,000 g for 15 minutes, to thereby obtain a precipitate. The precipitate thus obtained was washed twice and resuspended in the same Tris-HCl buffer as used above. […] The total volume amount of the reaction mixture was 1 ml. The resultant reaction mixture was subjected to suction filtration using a Whatman GF/C filter, and the filter was washed three times in 50 mM Tris-HCl buffer (pH 7.4, 4 ml), transferred to a vial and then, the radioactivity of Prazosin absorbed on the filter was determined using a liquid scintillation counter. […] On the other hand, substantially the same procedure as mentioned above was repeated, except that 100 nM (final concentration) Prazosin was added to the ^3 H-Prazosin and ascorbic acid. The radioactivity of ^3 H-Prazosin adsorbed on the filter was determined in the same manner as mentioned above. […] Further, substantially the same procedure as mentioned above was repeated, except that, instead of Prazosin, a test compound was used in a predetermined concentration. The radioactivity of ^3 H-Prazosin adsorbed on the filter was determined in the same manner as mentioned above. […] The binding inhibition ratios were plotted, taking the logarithmic value of the concentration of the test compound as the abscissa value, and the binding inhibition ratio as the ordinate value. Then, a curve was drawn by the non-linear least square method.

Suncus murinus = test: Activities against emesis: acceleration-stimulus induced emesis in suncus; type: in vivo; conditions: stimulus (4 cm, 1 Hz) 30 minutes after, 4 suncus, hydrochloride salt, physiological saline 0.55
Source text: The activities of individual compounds against emesis were examined using Suncus murinus. Suncus murinus is a small animal belonging to the Soricidae family. It has been known that suncus is likely to suffer from motion sickness and is susceptible to occurrence of emesis [see "Seitai-no-kagaku (Science of living body)", 42, 538 (1990)]. Suncus is likely to show symptoms like the symptoms of human motion sickness under the stimulus of simple acceleration, finally leading to the occurrence of emesis. It has been known that a drug, such as cisplatin, has an emesis-inducing activity.
In this test, test compounds were individually administered intraperitoneally to suncus. 30 minutes after the administration, acceleration-stimulus (amplitude: 4 cm; frequency; 1 Hz) was given to the suncus, and the suncus thus treated was observed as to whether emesis occurred or not.
Each of the compounds (1) used in the above tests was tested in the form of a hydrochloride salt thereof, and represented in Table 3 by the compound number used in Examples described below.

Structure (SMILES) | pKi (adrenaline α1 receptor) | Time for occurrence of emesis (Suncus murinus; 1 mg/kg intraperitoneally) [min. sec] | further results
CN(CCCCNC(=O)c1cccs1)CC1Cc2ccccc2O1 (single isomer, unassigned; (-)) [Compound 116A, (-)-2-{N-methyl-N-[4-(2-thienylcarbonylamino)butyl]}aminomethyl-2,3-dihydrobenzo[b]furan] | 6.28 | – | –
CCN(CCCCNC(=O)c1cccs1)CC1Cc2ccccc2O1 (single isomer, unassigned; (-)) [Compound 117A, (-)-2-{N-ethyl-N-[4-(2-thienylcarbonylamino)butyl]}aminomethyl-2,3-dihydrobenzo[b]furan] | 6.24 | – | –
O=C(NCCCCNCC1Cc2ccccc2O1)c1ccco1 (centres unmarked) [Compound 108B, 2-{N-[4-(2-furylcarbonylamino)butyl]}aminomethyl-2,3-dihydrobenzo[b]furan] | – | 4.56 | –
O=C(NCCNCC1Cc2ccccc2O1)c1cccc2ccccc12 (centres unmarked) [Compound 112B, 2-{N-[2-(1-naphthoylamino)ethyl]}aminomethyl-2,3-dihydrobenzo[b]furan] | 6.49 | – | Time for occurrence of emesis (Suncus murinus; 3 mg/kg intraperitoneally): 6.03 min. sec
O=S(=O)(NCCCCNCC1Cc2ccccc2O1)c1cccc2ccccc12 (centres unmarked) [Compound 114B, 2-{N-[4-(1-naphthylsulfonylamino)butyl]}aminomethyl-2,3-dihydrobenzo[b]furan] | 7.02 | 3.50 | –
O=S(=O)(NCCCCNCC1Cc2ccccc2O1)c1ccc2ccccc2c1 (centres unmarked) [Compound 115B, 2-{N-[4-(2-naphthylsulfonylamino)butyl]}aminomethyl-2,3-dihydrobenzo[b]furan] | – | 5.56 | –
COc1cc2nc(N3CCN(C(=O)c4ccco4)CC3)nc(N)c2cc1OC [^3 H-Prazosin, reference compound] | – | – | pKd (adrenaline α1 receptor; radioactive ligand, used in Ki calculation): 9.88

More lines, main results first:

pKi (adrenaline α1 receptor) | Structure (SMILES) | Time for occurrence of emesis (Suncus murinus; 1 mg/kg intraperitoneally) [min. sec] | further results
6.80 | O=C(NCCCCNCC1Cc2ccccc2O1)c1cccs1 (single isomer, unassigned; (-)) [Compound 111A, (-)-2-{N-[4-(2-thienylcarbonylamino)butyl]}aminomethyl-2,3-dihydrobenzo-[b]furan] | – | –
6.82 | O=C(NCCCCNCC1Cc2ccccc2O1)c1cccc2ccccc12 (centres unmarked) [Compound 101B, 2-{N-[4-(1-naphthoylamino)butyl]}aminomethyl-2,3-dihydrobenzo[b]furan] | – | –
6.85 | O=C(NCCCCNCC1Cc2ccccc2O1)c1ccc2ccccc2c1 (centres unmarked) [Compound 102B, 2-{N-[4-(2-naphthoylamino)butyl]}aminomethyl-2,3-dihydrobenzo[b]furan] | – | –
6.62 | O=C(NCCCCNCC1Cc2ccccc2O1)c1cccs1 (centres unmarked) [Compound 106B, 2-{N-[4-(2-thienylcarbonylamino)butyl]}aminomethyl-2,3-dihydrobenzo[b]furan] | 8.50 | –
6.64 | O=C(NCCCCNCC1Cc2ccccc2O1)c1ccsc1 (centres unmarked) [Compound 107B, 2-{N-[4-(3-thienylcarbonylamino)butyl]}aminomethyl-2,3-dihydrobenzo[b]furan] | – | –
7.02 | O=C(NCCCNCC1Cc2ccccc2O1)c1cccc2ccccc12 (centres unmarked) [Compound 113B, 2-{N-[3-(1-naphthoylamino)propyl]}aminomethyl-2,3-dihydrobenzo[b]furan] | 7.44 | –
